From patent US11753399B2, “Therapeutic compounds” (Gilead Sciences, Inc., priority 2018, dated 2023)

Assays:
HIV-IIIb = assay: Test A: Antiviral Assay in MT4 Cells; assay type: cell-based, HIV-1; details: Human immunodeficiency virus 1, MT4, 120 h, inhibition of virus-induced cell killing, MT-4 cells, HIV-IIIb, 5 days, values normalized to 100%; for inhibition at 0.01 µM: from dose response curve at 0.01 μM (10 nM), read-out: % inhibition at 0.01 μM; for inhibition at 0.2 µM: from dose response curve at 0.20 μM (200 nM), read-out: % inhibition at 0.20 μM
Experimental: (§1) MT-4 cells were next mixed with HIV-IIIb at a multiplicity of infection (m.o.i.) of 0.003 for 1 hour, after which time 35 μL of virus/cell mixture (2000 cells) was immediately added to each well containing 40 μL of diluted compound. The plates were then incubated at 37° C. for 5 days. After 5 days of incubation, 25 μl of 2× concentrated CellTiter-Glo Reagent (catalog #G7571, Promega Biosciences, Inc., Madison, Wis.) was added to each well containing MT-4 cells. Cell lysis was carried out by incubating at room temperature for 10 min and then chemiluminescence was read.

[1] = Test B: Cytotoxicity Assay (same protocol as Test A, uninfected cells); assay type: cell-based; details: human, uninfected MT-4 cells, CellTiter-Glo
Experimental: as §1, with “read. […] Compound cytotoxicity and the corresponding CC50 values was determined using the same protocol as described in the antiviral assay (Test A) except that uninfected cells were used.” for “read.”

| SMILES | inhibition at 0.01 µM (HIV-IIIb) | inhibition at 0.2 µM (HIV-IIIb) | CC50 at 5 days [1] |
| --- | --- | --- | --- |
| Cn1nc(NS(C)(=O)=O)c2c(Cl)ccc(-c3ccc(C#CC(C)(C)S(=O)(=O)C4CC4)nc3[C@H](Cc3cc(F)cc(F)c3)NC(=O)c3ccn[nH]3)c21 [Example 55] | 86% | 96% | 22.2 µM |
| CCS(=O)(=O)Nc1nn(CC(F)F)c2c(-c3ccc(C#CC(C)(C)S(=O)(=O)C4CC4)nc3[C@H](Cc3cc(F)cc(F)c3)NC(=O)Cn3nc(C(F)F)c4c3C(F)(F)[C@@H]3C[C@H]43)ccc(Cl)c12 [Example 9] | 96% | 96% | > 57.1 µM |
| Cn1nc(Nc2nnc(C3(O)CC3)o2)c2c(Cl)ccc(-c3ccc(C#CC(C)(C)S(=O)(=O)C4CC4)nc3[C@H](Cc3cc(F)cc(F)c3)NC(=O)Cn3nc(C(F)F)c4c3C(F)(F)[C@@H]3C[C@H]43)c21 [Example 28] | 99% | 99% | 16.5 µM |
| CC1(S(=O)(=O)Nc2nn(CC(F)F)c3c(-c4ccc(C#CC(C)(C)S(=O)(=O)C5CC5)nc4[C@H](Cc4cc(F)cc(F)c4)NC(=O)Cn4nc(C(F)F)c5c4C(F)(F)[C@@H]4C[C@H]54)ccc(Cl)c23)CC1 [Example 2F, N—((S)-1-(3-(4-chloro-1-(2,2-difluoroethyl)-3-((1-methylcyclopropane)-1-sulfonamido)-1H-indazol-7-yl)-6-(3-(cyclopropylsulfonyl)-3-methylbut-1-yn-1-yl)pyridin-2-yl)-2-(3,5-difluorophenyl)ethyl)-2-((3bS,4aR)-3-(difluoromethyl)-5,5-difluoro-3b,4,4a,5-tetrahydro-1H-cyclopropa[3,4]cyclopenta[1,2-c]pyrazol-1-yl)acetamide] | 100% | 100% | > 57.1 µM |
| Cn1nc(NS(C)(=O)=O)c2c(Cl)ccc(-c3ccc(C#CC(C)(C)S(=O)(=O)C4CC4)nc3[C@H](Cc3cc(F)cc(F)c3)NC(=O)Cn3nc(C(F)F)c(C4CC4)c3C(F)F)c21 [Example 59] | 81% | 93% | > 57.1 µM |
| Cn1nc(NS(=O)(=O)C2CC2)c2c(Cl)ccc(-c3ccc(C#CC(C)(C)S(=O)(=O)C4CC4)nc3[C@H](Cc3cc(F)cc(F)c3)NC(=O)Cn3nc(C(F)(F)F)c4c3C(F)(F)[C@@H]3C[C@H]43)c21 [Example 13] | 100% | 100% | > 57.1 µM |
| Cn1nc(NS(C)(=O)=O)c2c(Cl)ccc(-c3ccc(C#CC(C)(C)S(=O)(=O)C4CC4)nc3[C@H](Cc3cc(F)cc(F)c3)NC(=O)Cn3ncc4ccccc43)c21 [Example 61] | 3% | 98% | 28.4 µM |
| CCS(=O)(=O)Nc1nn(CC(F)F)c2c(-c3ccc(C#CC(C)(C)S(=O)(=O)C4CC4)nc3[C@H](Cc3cc(F)cc(F)c3)NC(=O)Cn3nc(C(F)F)c4c3C(F)(F)[C@@H]3C[C@H]43)cccc12 [Example 51] | 67% | 91% | 51.2 µM |
| CC(C)(C#Cc1ccc(-c2ccc(Cl)c3c(NS(=O)(=O)C4CC4)nn(CC(F)F)c23)c([C@H](Cc2cc(F)cc(F)c2)NC(=O)Cn2nc(C(F)(F)F)c3c2C(F)(F)[C@@H]2C[C@H]32)n1)S(=O)(=O)C1CC1 [Example 23] | 100% | 100% | > 57.1 µM |
| Cn1nc(NS(=O)(=O)C2CC2)c2cccc(-c3ccc(C#CC(C)(C)S(=O)(=O)C4CC4)nc3[C@H](Cc3cc(F)cc(F)c3)NC(=O)Cn3nc(C(F)F)c4c3C(F)(F)[C@@H]3C[C@H]43)c21 [Example 40] | 84% | 84% | > 57.1 µM |
| Cn1nc(NS(C)(=O)=O)c2c(Cl)ccc(-c3ccc(C#CC(C)(C)S(=O)(=O)C4CC4)nc3[C@H](Cc3cc(F)cc(F)c3)NC(=O)Cn3cnnc3)c21 [Example 47] | 0% | 0% | > 57.1 µM |
| CC(C)(C#Cc1ccc(-c2cccc3c(NS(=O)(=O)C4CC4)nn(CC(F)F)c23)c([C@H](Cc2cc(F)cc(F)c2)NC(=O)Cn2nc(C(F)F)c3c2C(F)(F)[C@@H]2C[C@H]32)n1)S(=O)(=O)C1CC1 [Example 52] | 93% | 93% | > 57.1 µM |
| CCS(=O)(=O)Nc1nn(CC(F)F)c2c(-c3ccc(C#CC(C)(C)S(=O)(=O)C4CC4)nc3[C@H](Cc3cc(F)cc(F)c3)NC(=O)Cn3nc(C(F)(F)F)c4c3C(F)(F)[C@@H]3C[C@H]43)ccc(Cl)c12 [Example 11] | 92% | 92% | > 57.1 µM |
| CC(C)(C#Cc1ccc(-c2ccc(Cl)c3c(NS(=O)(=O)C4CC4)nn(C4COC4)c23)c([C@H](Cc2cc(F)cc(F)c2)NC(=O)Cn2nc(C(F)(F)F)c3c2C(F)(F)[C@@H]2C[C@H]32)n1)S(=O)(=O)C1CC1 [Example 69] | 92% | 92% | > 50 µM |
| CCS(=O)(=O)Nc1nn(C)c2c(-c3ccc(C#CC(C)(C)S(=O)(=O)C4CC4)nc3[C@H](Cc3cc(F)cc(F)c3)NC(=O)Cn3nc(C(F)(F)F)c4c3C(F)(F)[C@@H]3C[C@H]43)ccc(Cl)c12 [Example 7] | 94% | 94% | > 57.1 µM |
| Cn1nc(NS(C)(=O)=O)c2c(Cl)ccc(-c3ccc(C#CC(C)(C)S(=O)(=O)C4CC4)nc3[C@H](Cc3cc(F)cc(F)c3)NC(=O)Cn3cc(C(F)(F)F)cn3)c21 [Example 65] | 27% | 100% | > 50 µM |
| Cn1nc(NS(=O)(=O)C2(C)CC2)c2c(Cl)ccc(-c3ccc(C#CC(C)(C)S(=O)(=O)C4CC4)nc3[C@H](Cc3cc(F)cc(F)c3)NC(=O)Cn3nc(C(F)F)c4c3C(F)(F)CCC4(F)F)c21 [Example 34] | 89% | 90% | > 57.1 µM |
| Cn1nc(NS(C)(=O)=O)c2c(Cl)ccc(-c3ccc(C#CC(C)(C)S(=O)(=O)C4CC4)nc3[C@H](Cc3cc(F)cc(F)c3)NC(=O)Cn3nc(C(F)F)c4c3C(F)(F)CCC4(F)F)c21 [Example 38] | 93% | 93% | > 57.1 µM |
| Cn1nc(NS(C)(=O)=O)c2c(Cl)ccc(-c3ccc(C#CC(C)(C)S(=O)(=O)C4CC4)nc3[C@H](Cc3cc(F)cc(F)c3)NC(=O)Cn3nnc4ccccc43)c21 [Example 63] | 1% | 100% | 21.8 µM |
| CC(C)(C#Cc1ccc(-c2ccc(Cl)c3c(NS(=O)(=O)C4CC4)nn(CC(F)(F)F)c23)c([C@H](Cc2cc(F)cc(F)c2)NC(=O)Cn2nc(C(F)F)c3c2C(F)(F)[C@@H]2C[C@H]32)n1)S(=O)(=O)C1CC1 [Example 35] | 97% | 97% | > 57.1 µM |
| Cn1nc(NS(C)(=O)=O)c2c(Cl)ccc(-c3ccc(C#CC(C)(C)S(=O)(=O)C4CC4)nc3[C@H](Cc3cc(F)cc(F)c3)NC(=O)Cn3ccnc3)c21 [Example 49] | 0% | 90% | > 57.1 µM |
| CC(C)(C#Cc1ccc(-c2ccc(Cl)c3c(NS(C)(=O)=O)nn(C4COC4)c23)c([C@H](Cc2cc(F)cc(F)c2)NC(=O)Cn2nc(C(F)F)c3c2C(F)(F)[C@@H]2C[C@H]32)n1)S(=O)(=O)C1CC1 [Example 18] | 100% | 100% | 41.6 µM |
